Experimental data from PubChem BioAssay (NCI).
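In this assay, cells in 96-well plates receive the compound at five concentrations for 48 hours. Endpoints are linearly interpolated between the surrounding concentrations. GI50: concentration for 50% inhibition of growth. TGI is the concentration that stops growth completely.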

Legend:
Assay in all cases: DTP human tumour cell line panel, 48 h; in the data active = GI50 below about 0.43 µM; inactive = the rest
OVCAR-3 ovarian = tested on: OVCAR-3 ovarian
HOP-62 NSCLC = tested on: HOP-62 NSCLC
BT-549 breast = tested on: BT-549 breast
A549 NSCLC = tested on: A549 NSCLC
NCI-H23 lung = tested on: NCI-H23 lung
UACC-257 melanoma = tested on: UACC-257 melanoma
HS 578T breast = tested on: HS 578T breast
OVCAR-4 ovarian = tested on: OVCAR-4 ovarian
SK-MEL-5 melanoma = tested on: SK-MEL-5 melanoma
SNB-75 CNS = tested on: SNB-75 CNS
HCT-15 colon = tested on: HCT-15 colon
COLO 205 colon = tested on: COLO 205 colon
HT29 colon = tested on: HT29 colon
PC-3 prostate = tested on: PC-3 prostate
SK-OV-3 ovarian = tested on: SK-OV-3 ovarian
OVCAR-5 ovarian = tested on: OVCAR-5 ovarian
SN12C renal = tested on: SN12C renal
NCI-H460 lung = tested on: NCI-H460 lung
ACHN renal = tested on: ACHN renal
SK-MEL-28 melanoma = tested on: SK-MEL-28 melanoma
CAKI-1 renal = tested on: CAKI-1 renal
UACC-62 melanoma = tested on: UACC-62 melanoma
HCT-116 colon = tested on: HCT-116 colon
HCC-2998 colon = tested on: HCC-2998 colon
MOLT-4 leukemia = tested on: MOLT-4 leukemia
LOX IMVI melanoma = tested on: LOX IMVI melanoma
MALME-3M melanoma = tested on: MALME-3M melanoma
OVCAR-8 ovarian = tested on: OVCAR-8 ovarian
SF-268 CNS = tested on: SF-268 CNS
U251 CNS = tested on: U251 CNS
NCI/ADR-RES ovarian = tested on: NCI/ADR-RES ovarian
SF-295 CNS = tested on: SF-295 CNS
EKVX NSCLC = tested on: EKVX NSCLC
TK-10 renal = tested on: TK-10 renal
M14 melanoma = tested on: M14 melanoma
SW-620 colon = tested on: SW-620 colon
KM12 colon = tested on: KM12 colon
HOP-92 NSCLC = tested on: HOP-92 NSCLC
K-562 leukemia = tested on: K-562 leukemia
MCF7 breast = tested on: MCF7 breast
MDA-MB-435 = tested on: MDA-MB-435
SNB-19 CNS = tested on: SNB-19 CNS
CCRF-CEM leukemia = tested on: CCRF-CEM leukemia
T-47D breast = tested on: T-47D breast
RPMI-8226 leukemia = tested on: RPMI-8226 leukemia
SF-539 CNS = tested on: SF-539 CNS
DU-145 prostate = tested on: DU-145 prostate

Nc1ccccc1C#C/C=C\C#Cc1cnccn1
23 µM: TGI (HCC-2998 colon)
31.9 µM: TGI (NCI/ADR-RES ovarian)
40.3 µM: TGI (T-47D breast)
23.2 µM: TGI (HCT-116 colon)
68.5 µM: TGI (MOLT-4 leukemia)
20.4 µM: TGI (M14 melanoma)
> 100 µM: TGI (OVCAR-3 ovarian) | TGI (A549 NSCLC) | TGI (UACC-257 melanoma) | TGI (HS 578T breast) | TGI (OVCAR-4 ovarian) | TGI (HCT-15 colon) | TGI (NCI-H460 lung) | TGI (SK-MEL-28 melanoma) | TGI (CAKI-1 renal) | TGI (OVCAR-8 ovarian) | TGI (SF-268 CNS) | TGI (SF-295 CNS) | TGI (EKVX NSCLC) | TGI (KM12 colon) | TGI (K-562 leukemia) | TGI (MCF7 breast) | TGI (MDA-MB-435) | TGI (SNB-19 CNS) | TGI (DU-145 prostate)
32.3 µM: TGI (HOP-62 NSCLC)
74.3 µM: TGI (HT29 colon)
23.8 µM: TGI (PC-3 prostate)
87.6 µM: TGI (SF-539 CNS)
17.5 µM: TGI (LOX IMVI melanoma)
19.2 µM: TGI (RPMI-8226 leukemia)
95.5 µM: TGI (SK-OV-3 ovarian)
28.5 µM: TGI (COLO 205 colon)
90.7 µM: TGI (SNB-75 CNS)
46.1 µM: TGI (SW-620 colon)
20.7 µM: TGI (SN12C renal)
79.7 µM: TGI (ACHN renal)
60 µM: TGI (TK-10 renal)
45.7 µM: TGI (OVCAR-5 ovarian)
21.3 µM: TGI (SK-MEL-5 melanoma)
inactive: GI50 (OVCAR-3 ovarian) 86.5 µM | GI50 (HOP-62 NSCLC) 13.6 µM | GI50 (BT-549 breast) 20.3 µM | GI50 (A549 NSCLC) 30.2 µM | GI50 (NCI-H23 lung) 12.1 µM | GI50 (UACC-257 melanoma) 26 µM | GI50 (HS 578T breast) 27 µM | GI50 (OVCAR-4 ovarian) 23.1 µM | GI50 (SK-MEL-5 melanoma) 6.34 µM | GI50 (SNB-75 CNS) 21.1 µM | GI50 (HCT-15 colon) 26.1 µM | GI50 (COLO 205 colon) 14.5 µM | GI50 (HT29 colon) 23.4 µM | GI50 (PC-3 prostate) 4.11 µM | GI50 (SK-OV-3 ovarian) 31.1 µM | GI50 (OVCAR-5 ovarian) 18.8 µM | GI50 (SN12C renal) 4.33 µM | GI50 (NCI-H460 lung) 29.8 µM | GI50 (ACHN renal) 22.2 µM | GI50 (SK-MEL-28 melanoma) 27.8 µM | GI50 (CAKI-1 renal) 46.3 µM | GI50 (UACC-62 melanoma) 3.95 µM | GI50 (HCT-116 colon) 11.2 µM | GI50 (HCC-2998 colon) 11 µM | GI50 (MOLT-4 leukemia) 12.4 µM | GI50 (LOX IMVI melanoma) 2.93 µM | GI50 (MALME-3M melanoma) 19.9 µM | GI50 (OVCAR-8 ovarian) 41.8 µM | GI50 (SF-268 CNS) 27.5 µM | GI50 (U251 CNS) 18.2 µM | GI50 (NCI/ADR-RES ovarian) 13.7 µM | GI50 (SF-295 CNS) 74.6 µM | GI50 (EKVX NSCLC) 16.3 µM | GI50 (TK-10 renal) 32.4 µM | GI50 (M14 melanoma) 6.21 µM | GI50 (SW-620 colon) 15.2 µM | GI50 (KM12 colon) 23.3 µM | GI50 (HOP-92 NSCLC) 1.36 µM | GI50 (K-562 leukemia) 6.66 µM | GI50 (MCF7 breast) 21.3 µM | GI50 (MDA-MB-435) 48.4 µM | GI50 (SNB-19 CNS) 36.7 µM | GI50 (T-47D breast) 17.7 µM | GI50 (RPMI-8226 leukemia) 3.17 µM | GI50 (SF-539 CNS) 22.8 µM | GI50 (DU-145 prostate) 19.4 µM
41.8 µM: TGI (U251 CNS)
27 µM: TGI (NCI-H23 lung)
70.2 µM: TGI (BT-549 breast)
18.3 µM: TGI (HOP-92 NSCLC)
14.8 µM: TGI (CCRF-CEM leukemia)
21 µM: TGI (UACC-62 melanoma)
58.6 µM: TGI (MALME-3M melanoma)
